US7622448B2, “Compositions suitable for topical application to the skin” (L'Oreal, priority 2003, dated 2009)

Tested on: isolated stratum corneum
Test: Desquamating effect: counting corneocytes released from isolated stratum corneum
Settings: compound 2% by weight in 0.1% Triton X100 PBS buffer pH 7.4, 37° C., 24 hours; for Average number of corneocytes released, 1st skin sample: control 1; for Average number of corneocytes released, 2nd skin sample: control 4
Procedure: The test consists in counting the corneocytes released after incubation of batches of isolated stratum corneum in the presence of three test compounds, corresponding to compounds F, G and K of Table 1.
Compounds F, G and K were each dissolved to 2% by weight in a 0.1% Triton X100 PBS buffer at pH 7.4.
Two different samples of stratum corneum isolated by trypsin/heat from plastic surgeries were used. SCI discs 4 mm in diameter were cut out using a punch and placed in the bottom of a 96-well dish. 50 μl of buffer containing the test compound were added to each well. Controls without compound were prepared. The tests were repeated three times. The incubation was performed at 37° C. with stirring for 24 hours. 10 μl were then taken up and placed in a Mallassez cell. The freed corneocytes were counted by microscope.

| Structure (SMILES) | Average number of corneocytes released, 1st skin sample | Average number of corneocytes released, 2nd skin sample |
| --- | --- | --- |
| CNC(=O)C(Cc1ccccc1)(C(=O)NC)[C@@H]1O[C@H](CO)[C@@H](O)[C@H](O)[C@H]1O [K] | 7 | 5 |
| CNC(=O)C(Cc1ccccc1)(C(=O)NC)[C@@H]1OC[C@@H](O)[C@H](O)[C@H]1O [G] | 13 | 12 |
| CNC(=O)C(Cc1ccccc1)(C(=O)NC)[C@@H]1O[C@H](C)[C@H](O)[C@H](O)[C@H]1O [Compound F, 2-benzyl-N,N′-dimethyl-2-(3,4,5-trihydroxy-6-methyltetrahydropyran-2-yl)malonamide] | 5 | 12 |
